Test results taken from US20110082220A1, “PORCINE UMAMI TASTE RECEPTORS AND USES THEREFOR” (The Regents of The University of California, priority 2007, published 2011).
Where “and” joins values, the source holds several entries; their conditions need not be identical. Equal entries are not always repeated.

Key:
[1] = tested on: Pig umami receptor (T1R1/T1R3); test: Screening assay for ligands: calcium influx via pig umami receptor in transfected CHO-K1 cells (Fluo-4 NW); format: cell-based; settings: for Absorbance Mean: CHO-K1 cells with pig taste receptors and mouse G alpha 15; for Index Relative to control: ratio of calcium influx to control (no treatment = 1.00); for stimulation of the pig umami receptor (signal, in words): CHO-K1 cell system, calcium signal; for response index: example test run, background (no treatment) = response ratio 1.0, concentration not given
[2] = tested on: weaned piglets; test: Double-choice preference test in drinking water, weaned piglets; format: in vivo, pigs (Landrace×Large White); settings: 0.5 M solution vs tap water; for % of preference Mean: two minutes, ad libitum conditions
Source text: This example tests preferences in drinking water for amino acids L-Glutamine and L-Lysine in weaned piglets maintained in ad libitum conditions.
A total number of 58 pigs (Landrace×Large White) of 18±2 Kg BW, half males and half females, were used in this study. The test pigs were selected according to their level of stress and behaviour in front of social isolation, reaction to novelty and training to perform a choice between two containers that had the test solution (sugar at 0.5M) and control solution (tap water) after an habituation period of four days. During the habituation period, individual pigs were maintained in contiguous pens in front of two unfamiliar red plastic containers (double-choice test) during 10 minutes every day. On the fourth day, animals were trained for performing the test. […] Selected test animals were maintained in groups of four and three pen mates under ad libitum conditions, feed and water, with a balanced diet according to their requirements. During the experimental sessions, pigs were exposed simultaneously to two different solutions (approximately 250 g in each container) for a time period of two minutes. One of the solutions was tap water (control) and the other contained a 0.5M solution of one of the amino acids tested (test). Volume depletion of both test and control solutions were recorded and the % preference related to the test solution calculated as follows: […]

## N[C@@H](CC(=O)O)C(=O)O [Aspartate]
[1]; treatment 1 mM
  Absorbance Mean: 8619
  Index Relative to control: 1.03
[1]; treatment 10 mM
  Absorbance Mean: 10352
  Index Relative to control: 1.24^1

## NC(=O)CC[C@H](N)C(=O)O [Glutamine, L-Glutamine]
[1]; listed as L-Glutamine
  stimulation of the pig umami receptor (signal, in words): high degree of stimulation
[1]; listed as glutamine
  stimulation of the pig umami receptor (signal, in words): the strongest and the most significant signal
[1]; treatment 1 mM
  Absorbance Mean: 10901
  Index Relative to control: 1.31^1
[1]; treatment 10 mM
  Absorbance Mean: 10038
  Index Relative to control: 1.20^1
[2]
  % of preference Mean: 59.56% and 79.28%
[2]; 1st study
  preferences over tap water: 60%
[2]; 2nd study
  preferences over tap water: 79%

## NCC(=O)O [Glycine]
[1]; treatment 1 mM
  Absorbance Mean: 8874
  Index Relative to control: 1.06
[1]; treatment 5 mM
  Absorbance Mean: 9543
  Index Relative to control: 1.14

## O=P(O)(O)O[C@@H]1[C@@H](O)[C@H](O)[C@@H](O)[C@H](O)[C@@H]1O [IMP, inositol monophosphate]
[1]; treatment 2.5 mM
  Absorbance Mean: 9161
  Index Relative to control: 1.10

## NC(CCP(=O)(O)O)C(=O)O [L-AP4]
[1]; treatment 5 mM
  Absorbance Mean: 8907
  Index Relative to control: 1.07
[1]; treatment 10 mM
  Absorbance Mean: 9316
  Index Relative to control: 1.12

## NCCCC[C@H](N)C(=O)O [L-Lysine]
[1]
  stimulation of the pig umami receptor (signal, in words): little or no capacity
[2]
  preference (in words): negative preference
  % of preference Mean: 37.66%
[2]; study not given
  preferences over tap water: about 38%

## CC(C)C[C@H](N)C(=O)O [Leucine]
[1]
  stimulation of the pig umami receptor (signal, in words): the strongest and the most significant signal
[1]; treatment 10 mM
  Absorbance Mean: 9163
  Index Relative to control: 1.10
[1]; treatment 30 mM
  Absorbance Mean: 10161
  Index Relative to control: 1.22^1

## Cl.NCCCC[C@H](N)C(=O)O [Lysine HCl]
[1]; treatment 10 mM
  Absorbance Mean: 9319
  Index Relative to control: 1.12
[1]; treatment 30 mM
  Absorbance Mean: 9675
  Index Relative to control: 1.16

## N[C@@H](CO)C(=O)O [Serine]
[1]; treatment 5 mM
  Absorbance Mean: 8372
  Index Relative to control: 1.00
[1]; treatment 10 mM
  Absorbance Mean: 9697
  Index Relative to control: 1.16

## C[C@H](N)C(=O)O [alanine]
[1]
  response index: 3.47

## N[C@@H](CS)C(=O)O [cysteine]
[1]
  response index: 0.83

## C/C=C(/C)C(=O)O[C@H]1C(C)=C2[C@H]([C@@H]1OC(=O)CCCCCCC)[C@@](C)(OC(C)=O)C[C@H](OC(=O)CCC)[C@@]1(O)[C@H]2OC(=O)[C@@]1(C)O [thapsigargin, reference compound]
[1]
  response index: 17.89
